# Assay results from US7754202B1, “Methods of controlling cell differentiation and growth using a fusion protein and a drug” (Stanford University, priority 1998, dated 2010).
# Legend:
# [1] = tested on: Ba/F3 cell lines expressing gp130 signaling domain fused to FKBP12 domains; test: Proliferation of Ba/F3 cell lines expressing gp130-FKBP12 fusion proteins; assay type: cell-based
# Excerpt: Expression cassettes encoding fusion proteins containing the signaling domains of the gp130 fused to one, two or three copies of the FKBP12 domain were used to generate stably transfected Ba/F3 cell lines. The complexes that can be assembled in response to FK1012 differ for the various fusion proteins. In the presence of FK1012, fusion proteins containing a single FKBP domain are limited to simple dimerization, whereas proteins containing two or more FKBP domains can form both dimers and oligomers.
# In one illustrative experiment, an MSCV-based expression vector was constructed that contained two FKBP12 domains.
# [2] = Solubility in aqueous culture medium; assay type: physicochemical; details: aqueous buffer, serial dilution in culture medium, read-out: highest concentration ensuring complete solubility in the (aqueous) medium
# Protocol: Working concentrations of AP1510 can be obtained by adding compound directly from ethanol stocks, or by diluting serially in culture medium just before use. In the latter case it is recommended that the highest concentration not exceed 5 uM, to ensure complete solubility in the (aqueous) medium. In either case, the final concentration of ethanol in the medium added to mammalian cells should be kept below 0.5% (a 200-fold dilution of a 100% ethanol solution) to prevent detrimental effects of the solvent on the cells.
# cells = test: Immunosuppressive activity or other toxicity to cells; assay type: cell-based; details: in experiments to date
# transduced marrow cells = test: Reversibility of FK1012-dependent cell proliferation after 28 days of culture; assay type: cell-based, murine
# Protocol: For the experiments whose results are shown in Table 3, after 28 days of culture in FK1012 (100 nM), transduced marrow cells were washed extensively and cultured in suspension in the presence (+) or absence (−) of FK1012. The numbers in Table 3 indicate the number of cells per well×10^−5.
# [3] = tested on: murine bone marrow cells transduced with MSCVF1mpl; test: Suspension culture of MSCVF1mpl-transduced bone marrow cells (cell numbers, cell types); assay type: cell-based
# Protocol: FIG. 2: FK1012 stimulates expansion of genetically modified bone marrow cells. Following retroviral transduction, marrow cells were cultured in IMDM containing 10% FCS, 50 U/ml penicillin, […] streptomycin either in the presence or absence of FK1012 (100 nM) or flt-3 ligand (Peprotech-100 ng/ml), in a 37°, 5% CO2, incubator. Cell numbers were determined on the days indicated. Open diamonds: No FK1012, no FL; Closed diamonds: FK1012 alone; Open circles: FL alone; Closed circles: FK1012 plus FL. Note that X axis is on a logarithmic scale.
# Forty-eight hours following administration of 150 mg/kg 5-fluorouracil (5-FU), marrow cells were harvested from B6D2F1 mice and cultured for 48 hours in Dulbecco's Modified Eagle's Medium containing 16% fetal calf serum (Intergen), 5% IL3-conditioned medium (Stem Cell Technologies), 100 ng/ml recombinant human IL6 and 50 ng/ml recombinant murine stem cell factor in a 37° C., 5% CO2 incubator. After 48 hours, cells were transferred onto irradiated (1500 cGy) producer cells and cocultivated using the same growth conditions except for the addition of polybrene ([…]). Marrow cells were harvested after 48-hours of cocultivation.
# In order to test whether the pharmacological activation of mpl is capable of driving proliferation in genetically modified bone marrow cells, the F1mpl construct was inserted into the retroviral vector MSCV-neoEB (Hawley, et al. Gene Ther. 1:136, 1994). The resulting construct, MSCVF1mpl, was used to generate a stable, high titer, helper virus-free ecotropic producer cell line as described above. Supernatant from the producer cell line was capable of conferring G418 resistance and FK1012 responsiveness in transduced Ba/F3 cell clones (FIG. 1C). Gene transfer into murine bone marrow cells was performed by cocultivation, and transduced marrow cells were tested in suspension culture for the capacity to respond to FK1012. In one set of cultures, FK1012's effects were evaluated in the absence of added growth factors. […] Cell numbers were determined at various time points of culture (FIG. 2). In the absence of drug or added growth factors, all cells died over a period of 7-14 days. […] In contrast, FK1012 dramatically stimulated cell proliferation. The proliferative effect of FK1012 was apparent within 5 days of culture, and has persisted for longer than 49 days without evidence of decline. […] By 42 days of culture FK1012 had induced a greater than 2.5 million-fold expansion in cell numbers.
# The types of cells emerging in response to FK1012 differed at varying time points of culture. […] Similar results were obtained in a second experiment.
# [4] = tested on: clonogenic progenitor cells (CFU-C) of MSCVF1mpl-transduced marrow; test: CFU-C assays during suspension culture, with or without G418; assay type: cell-based, murine
# Protocol: FIG. 3: CFU-C assays at various time points during suspension culture. Cells were harvested on the days indicated and cultured in semisolid media (Blau, et al. Hum. Gen. Ther. 7:2069, 1996) either in the presence or absence of G418. The concentration of G418, […], was sufficient to prevent the growth of nontransduced cells (data not shown). Dark bars: CFU-C numbers in the absence of G418; Light bars: CFU-C numbers in the presence of G418. (A) No FK1012, no FL; (B) FK1012 alone; (C) FL alone; (D) FK1012 plus FL. Note that FK1012-mediated CFU-C expansion markedly favors the genetically modified cell population.
# To determine whether FK1012 is capable of stimulating expansion among clonogenic progenitor cells, progenitors were assayed at various time points of culture as colony forming unit cells (CFU-C). As the MSCVF1mpl vector incorporates a neo gene. (Hawley, et al. Gene Ther. 1:136, 1994), the frequency of genetically modified progenitors is reflected in the frequency of G418 resistant CFU-C. […] By day 28 CFU-C had fallen to undetectable levels (FIG. 3A). In contrast, in the presence of FK1012 an almost 600,000-fold expansion in CFU-C was observed by day 42 (FIG. 3B). […] Of note is that while granulocytes were virtually absent after 42 days in suspension culture in the presence of FK1012 alone, CFU-C progeny derived from these cultures contained large numbers of granulocytes. […]
# G418 resistant CFU-C = test: FK1012-mediated selection of genetically modified CFU-C in a mixed transduced/non-transduced marrow population; assay type: cell-based, murine; details: mixed transduced and non-transduced marrow
# Excerpt: In order to determine whether FK1012 is capable of specifically delivering a mitogenic signal to a minor population of genetically modified CFU-C, marrow cells cocultivated with the MSCVF1mpl producer cell line were mixed with marrow cells cocultivated with the parental packaging cell line. The frequency of G418 CFU-C arising from this mixed population of transduced and non-transduced cells was 35%.
# The numbers in Table 4 indicate the fraction of G418 resistant CFU-C.
# [5] = tested on: CD34+ cells from human cord blood transduced with dimerizer-responsive c-mpl signaling domain; test: Amplification and erythroid differentiation of MFM-transduced human cord blood CD34+ cells; assay type: cell-based
# Excerpt: CD34+ cells were selected from human cord blood and transduced with a PG13-packaged, MSCV-based retrovirus vector encoding a dimerizer-responsive version of the c-mpl signaling domain (MFM, as described in Example 7, see FIG. 4). […] This finding was reproducible, occurring in each of four separate experiments.
# [6] = gp130 chimeric proteins containing a single FKBP12 domain
# [7] = gp130 fusion proteins with two or three FKBP12 domains
# [8] = FK1012 100 nM, suspension culture
molecule,measurement,setting,value
CCC(C)(C)C(=O)C(=O)N1CCCC[C@H]1C(=O)O[C@H](CCc1ccc(OC)c(OC)c1)c1cccc(OCC(=O)NCCNC(=O)COc2cccc([C@@H](CCc3ccc(OC)c(OC)c3)OC(=O)[C@@H]3CCCCN3C(=O)C(=O)C(C)(C)CC)c2)c1 [AP1510],proliferative response,[1]; [6],minimal proliferative response
same,proliferative response,[1]; [7],vigorous proliferative responses
same,solubility,[2],≤ 5 µM
same,immunosuppressive activity or other toxicity to cells,cells,no immunosuppressive activity or other toxicity to cells
FK1012,proliferative response,[1]; [6],minimal proliferative response
same,proliferative response,[1]; [7],lesser proliferative responses
same,in vivo half life,In vivo half life,less than one
same,number of cells per well,"transduced marrow cells; absence (−) of FK1012 after 28 days in FK1012 and washing, day 0",5 10^5 cells per well
same,number of cells per well,"transduced marrow cells; absence (−) of FK1012 after 28 days in FK1012 and washing, day 7",0.59 10^5 cells per well
same,number of cells per well,"transduced marrow cells; absence (−) of FK1012 after 28 days in FK1012 and washing, day 14",.09 cells per well×10^−5
same,reversibility of proliferative effect,"transduced marrow cells; cells cultured 28 days in FK1012, then withdrawal or re-addition",withdrawal of FK1012 was followed promptly by cell death
same,number of cells per well,"transduced marrow cells; presence (+) of FK1012, day 0 in culture",5 10^5 cells per well
same,number of cells per well,"transduced marrow cells; presence (+) of FK1012, day 7 in culture",36 10^5 cells per well
same,number of cells per well,"transduced marrow cells; presence (+) of FK1012, day 14 in culture",1283 10^5 cells per well
same,persistence of proliferative effect without evidence of decline,[3]; [8],> 49 days
same,time until proliferative effect apparent,[3]; [8],≤ 5 days
same,expansion in cell numbers,"[3]; by 42 days of culture, FK1012 100 nM",greater than 2.5 million
same,types of cells emerging,[3]; first two weeks of culture in FK1012,"mature granulocytes and macrophages predominated, while megakaryocytes were rare"
same,types of cells emerging,[3]; later time points of culture in FK1012,megakaryocytes emerged as the dominant phenotypically identifiable cell population
same,expansion in CFU-C,"[4]; by day 42, FK1012 alone","~600,000 fold"
same,fraction of G418 resistant CFU-C,G418 resistant CFU-C; day 0 in culture,0.35
same,fraction of G418 resistant CFU-C,G418 resistant CFU-C; day 7 in culture,0.96
CC[C@H](C(=O)N1CCCC[C@H]1C(=O)O[C@H](CCc1ccc(OC)c(OC)c1)c1cccc(OCC(=O)NCCNC(=O)COc2cccc([C@@H](CCc3ccc(OC)c(OC)c3)OC(=O)[C@@H]3CCCCN3C(=O)[C@@H](CC)c3cc(OC)c(OC)c(OC)c3)c2)c1)c1cc(OC)c(OC)c(OC)c1 [AP1903],cell proliferation,"[1]; MSCV construct, gp130 with two modified FKBP12 domains, Ba/F3 cells",vigorous AP1903-dependent cell proliferation
same,cells expressing glycophorin,[5]; by day 15 of culture,90%
same,expansion in total cell numbers,[5]; in the absence of added cytokines,175-350 fold
"FL: flt-3 ligand (Peprotech), growth factor used at 100 ng/ml (protein, UniProt P49771 27-235, looked up) Fms-related tyrosine kinase 3 …: TQDCSFQHSPISSDFAVKIRELSDYLLQDYPVTVASNLQDEELCGGLWRLVLAQRWMERLKTVAGSKMQGLLERVNTEIHFVTKCAFQPPPSCLRFVQTNISRLLQETSEQLVALKPWITRQNFSRCLELQCQPDSSTLPPPWSPRPLEATAPTAPQPPLLLLLLLPVGLLLLAAAWCLHWQRTRRRTPRPGEQVPPVPSPQDLLLVEH",cell survival in suspension culture,[3]; FL alone,all cells died by day 28
same,expansion in cell numbers,"[3]; FL alone (100 ng/ml), between 9 and 12 days of suspension culture",three
same,expansion in CFU-C,"[4]; FL alone, transient, without preference for the transduced population",seven
same,fraction of G418 resistant CFU-C,G418 resistant CFU-C; day 0 in culture,0.35
same,fraction of G418 resistant CFU-C,G418 resistant CFU-C; day 7 in culture,0.14
